Measured values: patent US8357379B2, “High concentration baclofen preparations” (Board of Regents, The University of Texas System, priority 2004, dated 2013)
Marks after values point to notes of the source that are not given here.

Experiments:
[1] = intrathecal injection at effective CSF concentrations vs oral administration; cited from earlier work
[2] = Physical stability evaluation (visual inspection, Tyndall beam, turbidity, particle counting) of stored baclofen solutions; type: physicochemical; conditions: for Physical Stability (yes/no) / visual inspection at approximately 16 months: heat and sonication; for physical stability at twelve months: 12 months
[3] = as above; type: physicochemical; conditions: for time remained clear and free of unacceptable microparticulates: room temperature or 37° C.
Description: Methods of Sample Preparation. All manipulations are conducted in a Class 100 environment in a biological safety cabinet. Each test solution is prepared as a pooled sample and then subdivided by (1) drawing 20 mL of the solution into 30-mL Becton-Dickinson syringes having Braun Luer lock “Red Cap” syringe tip seals and (2) sealing the Luer tip with a Red Cap Luer tip seal and (3) filling 20 mL of the test solution into 30-mL sterile empty glass vials. Separate sample syringes and sample vials are prepared for each drug concentration at each storage temperature. Separate syringes and vials are prepared for analysis of the drug content. Further syringes and vials are used to evaluate the physical stability of the solutions.
Methods of Sampling and Analysis. Each pooled solution is analyzed and evaluated immediately after preparation. This serves as the initial time point evaluation for the test solution. The solution is then packaged into the syringes and vials as noted under Sample Preparation.
(§1) The test solutions in vials and syringes are thoroughly mixed prior to sampling. A 1-mL sample of each test solution from three test syringes and three test vials is collected and chemically analyzed. The sample aliquots are removed from each container after 1, 3, 7, 14, 21, 30 and 60 days of storage at 4° C., 23° C., and 37° C. Triplicate HPLC determinations are performed at each time point if needed to determine the maximum stability of baclofen. The contents of the remaining containers are visually inspected at each assay time point and 6-mL samples are collected and fully evaluated for physical stability as indicated under Physical Stability Evaluation above after 1, 3, 7, 14, 21, 30 and 60 days.
After complete dissolution of the samples had occurred, the solutions were allowed to cool to room temperature and several separate aliquots of each sample were filtered through 0.22-micron sterilizing filters into sterile empty vials. Vials containing samples of each solution were stored under one of three test conditions: vials were stored at room temperature or under refrigeration (to simulate normal storage conditions), or at 37° C. (to simulate “in use” conditions in an implanted pump).
Physical Stability Evaluation. The samples are also evaluated for changes in turbidity and particulate formation. In addition to visual inspection in normal diffuse fluorescent room light and using a high-intensity monodirectional light source (Tyndall beam) against a dark background, turbidity is measured using a Hach Company model 2100AN color-correcting turbidimeter, and particle sizing/counting is performed using a light-obscuration particle sizer and counter (HIAC-Royco Model 9703 particle sizer/counter).

[4] = Stability-indicating HPLC analysis of baclofen concentration / chemical stability; type: physicochemical; conditions: for Chemical Stability (% Remaining): room temperature
Description: as §1, with “The sample aliquots are removed from each container after 1, 3, 7, 14, 21, 30 and 60 days of storage at 4° C., 23° C., and 37° C.” left out
HPLC Analysis to Confirm Baclofen Concentration. A stability-indicating HPLC analytical method adapted from published methods was used to determine the concentration of the baclofen samples evaluated in this testing (Sitaram et al., 1997; Gupta et al., 1998; Johnson C E, et al., 1993; Allen L V, et al., 1996. This method was used to document that at the higher concentrations the entire amount of baclofen had dissolved, and the solutions were near the target concentrations. All tested sample solutions were filtered through 0.22-micron filters to remove remaining undissolved drug, if any, prior to analysis. The HPLC analytical method used is cited in Tables 1 and 2. […] Initial baclofen concentrations for the nominally 4, 5, 6, and 8 mg/mL test solutions were within 93 to 104% of the target concentrations.
The liquid chromatograph is a Waters LC Module-1 Plus having a multisolvent pump, variable wavelength UV detector, and autosampler in one unit. The system is also controlled and integrated by a personal computer running chromatography management software.

Physical Stability (yes/no) ([2]; 3 mg/ml, room temperature, test period 24 months): yes
Physical Stability (yes/no) ([2]; 3.5 mg/ml, room temperature, test period 24 months): yes
time remained in solution ([2]; 4 mg/mL, Examples 1 and 2, refrigerated at 4° C. (maximum duration tested)): at least 60 days
time remained in solution, clear and free of visible particulates and microparticulate precipitation ([2]; 4 mg/mL, Examples 1 and 2, room temperature of 23° C.): at least one
time stayed in solution, clear and free of visible particulates and unacceptable microparticulates ([2]; 4 mg/mL, heat and sonication (Example 1) or heat and high speed stirring (Example 2), room temperature): over 12 months
Physical Stability (yes/no) ([2]; 4 mg/ml, room temperature, test period 12 months): yes
Physical Stability (yes/no) ([2]; 4 mg/ml, room temperature, test period 24 months): yes
time after which a precipitate developed ([2]; 5 mg/mL, refrigeration): 14 days
Physical Stability (yes/no) ([2]; 5 mg/ml, room temperature, test period 12 months): yes
time remained clear and free of unacceptable microparticulates ([2]; 6 mg/mL, all four methods (Examples 1-4), room temperature or 37° C.): at least 60 days
visual inspection at approximately 16 months ([2]; 6.0 mg/mL, room temperature): no change in its condition
Physical Stability (yes/no) ([2]; 6 mg/ml, room temperature, test period 12 months, no visible particulates to the unaided eye, trace microparticulates in a few vials): yes^b
time remained in solution ([2]; 8.0 mg/mL, heat and sonication (Example 1), room temperature): at least 30 days
time remained clear and free of unacceptable microparticulates before trace particulate precipitation ([2]; 8 mg/mL, heating and agitation (Examples 1 and 2), room temperature or 37° C.): 14 days
physical stability at 24 months ([2]; 3.0, 3.5 and 4.0 mg/mL, heat and sonication (Example 1), room temperature, 24 months, four methods of Example 11): physically stable by all four methods
visual inspection at approximately 16 months ([2]; 4.0 and 5.0 mg/mL, room temperature): no change in the solutions
time stayed in solution, clear and free of visible particulates and unacceptable microparticulates ([3]; 4 mg/mL, Examples 1 and 2, 37° C. (maximum duration tested)): at least one
time remained clear and free of unacceptable microparticulates ([3]; 4 mg/mL, prepared by pH adjustment (Examples 3 and 4)): at least 60 days
time remained clear and free of unacceptable microparticulates ([3]; 5 mg/mL, all four methods (Examples 1-4)): at least 60 days
time after which a precipitate developed ([3]; 6 mg/mL, refrigeration): 7 days
time remained in solution clear and free of unacceptable microparticulates ([3]; 8 mg/mL, acidification and back titration to pH 5 (Example 3), room temperature): at least 30 days
time remains in solution clear and free of unacceptable microparticulates ([3]; 8 mg/mL, alkalinization and back titration (Example 4), room temperature): at least 30 days
Chemical Stability (% Remaining) ([4]; 3 mg/ml, 24 months, calculated based on concentrations measured at six months): 101.7 ± 1.0^a % Remaining
Chemical Stability (% Remaining) ([4]; 3.5 mg/ml, 24 months, calculated based on concentrations measured at six months): 100.0 ± 0.4^a % Remaining
loss of drug during storage ([4]; 4 mg/mL, Examples 1 and 2, at least one year at 23° C.): no loss of drug
Chemical Stability (% Remaining) ([4]; 4 mg/ml, 12 months): 99.9 ± 0.5 % Remaining
Chemical Stability (% Remaining) ([4]; 4 mg/ml, 24 months, calculated based on concentrations measured at six months): 99.5 ± 1.2^a % Remaining
Chemical Stability (% Remaining) ([4]; 5 mg/ml, 12 months): 100.6 ± 0.5 % Remaining
Chemical Stability (% Remaining) ([4]; 6 mg/ml, 12 months): 102.9 ± 1.0 % Remaining
initial baclofen concentration relative to target concentration ([4]; nominally 4, 5, 6, and 8 mg/mL test solutions, filtered 0.22-micron, HPLC): 93 to 104%
Structure (SMILES): NCC(CC(=O)O)c1ccc(Cl)cc1 (stereo not drawn) [Baclofen, 4-amino-3-(p-chlorophenyl) butyric acid]
plasma concentrations with intrathecal injection relative to oral administration [1]: 100 times less
physical stability at twelve months ([2]; 6.0 mg/mL, heat and sonication (Example 1), room temperature): no visible particulates to the unaided eye, but did contain trace amounts of solid material
physical stability at twelve months ([2]; 4.0 and 5.0 mg/mL, heat and sonication (Example 1), room temperature): remained clear and no particulates were detected
